Measured values: ChEMBL document CHEMBL1159174, “Spiroketal glycomimetics: the synthesis of a conformationally restrained Sialyl Lewis X mimic” (Bioorg Med Chem Lett, 1995)
pIC50, pKd: −log10 of the molar value.

Tests used:
[1] = target: T1, E-selectin (Homo sapiens) (UniProt P16581); experiment: Ability to inhibit the binding to Selectin E immobilized on SPA beads of radiolabeled HL-60 cell membrane was determined at concentration of 10 mM; assay type: cell membranes
T1 sequence (whole entry): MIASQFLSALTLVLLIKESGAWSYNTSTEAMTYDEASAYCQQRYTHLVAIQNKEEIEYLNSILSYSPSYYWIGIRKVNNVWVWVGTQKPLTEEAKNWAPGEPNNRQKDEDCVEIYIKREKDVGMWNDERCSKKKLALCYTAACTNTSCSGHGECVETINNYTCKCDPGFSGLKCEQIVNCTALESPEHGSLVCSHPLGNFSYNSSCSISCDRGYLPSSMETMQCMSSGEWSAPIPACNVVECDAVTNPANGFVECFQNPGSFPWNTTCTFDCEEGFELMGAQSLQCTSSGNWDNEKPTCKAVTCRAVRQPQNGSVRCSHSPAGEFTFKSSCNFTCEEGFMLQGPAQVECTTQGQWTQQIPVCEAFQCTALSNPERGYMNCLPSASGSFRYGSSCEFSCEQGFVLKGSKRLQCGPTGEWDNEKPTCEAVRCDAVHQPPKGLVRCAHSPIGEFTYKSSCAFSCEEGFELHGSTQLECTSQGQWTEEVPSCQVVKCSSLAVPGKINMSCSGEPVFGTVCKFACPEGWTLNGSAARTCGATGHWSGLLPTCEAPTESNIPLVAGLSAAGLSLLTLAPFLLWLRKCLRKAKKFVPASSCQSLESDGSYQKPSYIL

E-selectin [2] = target: T2, E-selectin (Homo sapiens, UniProt P16581); experiment: Ability to inhibit the binding to Selectin E immobilized on SPA beads of radiolabeled HL-60 cell membrane was determined; assay type: cell membranes
T2 sequence (P16581 whole entry): T1 sequence (whole entry)

E-selectin [3] = target: T2, E-selectin; experiment: Affinity of compound to Selectin E was determined

| inhibition [1] [%] | pIC50 (E-selectin [2]) | pKd (E-selectin [3]) | Structure (SMILES) |
| --- | --- | --- | --- |
| 35 | – | – | CC(=O)NC1C(O)CC(OC2CCO[C@]3(CCC(OC4OC(C)C(O)C(O)C4O)CO3)C2)(C(=O)O)OC1[C@H](O)[C@H](O)CO (stereo partly drawn) |
| – | 3.52 | 3.00 | CC(=O)N[C@H]1[C@H]([C@H](O)[C@H](O)CO)O[C@@](O[C@H]2[C@@H](O)[C@@H](CO)O[C@@H](O[C@@H]([C@H](O[C@@H]3O[C@@H](C)[C@@H](O)[C@@H](O)[C@@H]3O)[C@H](C=O)NC(C)=O)[C@H](O)CO)[C@@H]2O)(C(=O)O)C[C@@H]1O [SIALYL LEWIS X] |
